Where “and” joins values, the source holds several entries; their conditions need not be identical. Equal values may be shown once. Read-outs that look alike come from different tables or passages of the source.
How the values were obtained:
[1] = target: (h)AChE (AChE from human erythrocytes) (Homo sapiens, UniProt P22303); test: biochemical; settings: for inhibition at 1 µM: read-out: (h)AChE % Inhibition at 10^−6 M
Method: DPZ was used as a reference.
Inhibitory capacity of compounds on AChE biological activity was evaluated using the spectrometric method of Ellman. Acetyl- or butyrylthiocholine iodide and 5,5-dithiobis-(2-nitrobenzoic) acid (DTNB) were purchased from Sigma Aldrich. Lyophilized BuChE from equine serum (Sigma Aldrich) was dissolved in 0.2 M phosphate buffer pH 7.4 such as to have enzyme solutions stock with 2.5 units/mL enzyme activity. AChE from human erythrocytes (buffered aqueous solution, ≥500 units/mg protein (BCA), Sigma Aldrich) was diluted in 20 mM HEPES buffer pH 8, 0.1% Triton X-100 such as to have enzyme solution with 0.25 unit/mL enzyme activity. In the procedure, 100 μL of 0.3 mM DTNB dissolved in phosphate buffer pH 7.4 was added to the 96 wells plate followed by 50 μL of test compound solution and 50 μL of enzyme (0.05 U final). After 5 min of preincubation at 25 °C, the reaction was then initiated by the injection of 50 μL of 10 mM acetyl- or butyrylthiocholine iodide solution. […] Assays were performed in simplicate during three independent tests, with a blank containing all components except acetyl- or butyrylthiocholine, in order to account for non-enzymatic reaction. The reaction slopes were compared, and the percent inhibition due to the presence of test compounds was calculated by the following expression: 100 − (vi/v0 × 100) where vi is the rate calculated in the presence of inhibitor and v0 is the enzyme activity.

[2] = target: (eq)BuChE (BuChE from equine serum) (Equus caballus, UniProt P81908); test: (eq)BuChE inhibition, Ellman test; assay type: biochemical; settings: for inhibition at 1 µM: read-out: (eq)BuChE % Inhibition at 10^−6 M
Sequence of (eq)BuChE (BuChE from equine serum) (P81908 whole entry): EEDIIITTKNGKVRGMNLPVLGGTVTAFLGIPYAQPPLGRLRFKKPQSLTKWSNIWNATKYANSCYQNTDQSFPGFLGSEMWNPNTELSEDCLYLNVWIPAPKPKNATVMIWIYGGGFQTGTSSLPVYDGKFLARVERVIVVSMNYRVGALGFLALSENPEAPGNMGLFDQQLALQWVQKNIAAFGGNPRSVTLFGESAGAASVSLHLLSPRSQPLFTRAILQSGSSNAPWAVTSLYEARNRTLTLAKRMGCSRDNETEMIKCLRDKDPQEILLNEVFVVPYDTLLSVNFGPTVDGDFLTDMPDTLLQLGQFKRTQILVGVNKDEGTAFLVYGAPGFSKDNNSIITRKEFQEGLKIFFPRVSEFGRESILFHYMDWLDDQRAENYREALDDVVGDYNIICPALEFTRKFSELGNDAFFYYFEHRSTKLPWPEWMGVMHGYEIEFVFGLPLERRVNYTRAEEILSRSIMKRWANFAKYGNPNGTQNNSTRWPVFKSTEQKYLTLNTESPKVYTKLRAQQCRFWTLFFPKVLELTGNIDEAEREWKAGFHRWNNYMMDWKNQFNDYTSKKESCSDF
Method: . DPZ was used as a reference.
Inhibitory capacity of compounds on AChE biological activity was evaluated using the spectrometric method of Ellman. Acetyl- or butyrylthiocholine iodide and 5,5-dithiobis-(2-nitrobenzoic) acid (DTNB) were purchased from Sigma Aldrich. Lyophilized BuChE from equine serum (Sigma Aldrich) was dissolved in 0.2 M phosphate buffer pH 7.4 such as to have enzyme solutions stock with 2.5 units/mL enzyme activity. AChE from human erythrocytes (buffered aqueous solution, ≥500 units/mg protein (BCA), Sigma Aldrich) was diluted in 20 mM HEPES buffer pH 8, 0.1% Triton X-100 such as to have enzyme solution with 0.25 unit/mL enzyme activity. In the procedure, 100 μL of 0.3 mM DTNB dissolved in phosphate buffer pH 7.4 was added to the 96 wells plate followed by 50 μL of test compound solution and 50 μL of enzyme (0.05 U final). After 5 min of preincubation at 25 °C, the reaction was then initiated by the injection of 50 μL of 10 mM acetyl- or butyrylthiocholine iodide solution. The hydrolysis of acetyl- or butyrylthiocholine was monitored by the formation of yellow 5-thio-2-nitrobenzoate anion as the result of the reaction of DTNB with thiocholine, released by the enzymatic hydrolysis of acetyl- or butyrylthiocholine, at a wavelength of 412 nm using a 96-well microplate plate reader (TECAN Infinite M200, Lyon, France). […]. The rate of absorbance increase at 412 nm was followed every minute for 10 min. Assays were performed in simplicate during three independent tests, with a blank containing all components except acetyl- or butyrylthiocholine, in order to account for non-enzymatic reaction. The reaction slopes were compared, and the percent inhibition due to the presence of test compounds was calculated by the following expression: 100 − (vi/v0 × 100) where vi is the rate calculated in the presence of inhibitor and v0 is the enzyme activity.
First screening of AChE and BuChE activity was carried out at a 10^−6 or 10^−5 M concentration of compounds under study. […]

human recombinant MAO-A = target: T1, human recombinant MAO-A (Homo sapiens, UniProt P21397); test: (h)MAO-A inhibition, kynuramine fluorescence assay; assay type: biochemical; settings: 10^−5 M; kynuramine 50 µM
T1 construct: purchased Sigma Aldrich; host or cells: baculovirus infected insect cells (microsomes)
T1 sequence (P21397 1-527): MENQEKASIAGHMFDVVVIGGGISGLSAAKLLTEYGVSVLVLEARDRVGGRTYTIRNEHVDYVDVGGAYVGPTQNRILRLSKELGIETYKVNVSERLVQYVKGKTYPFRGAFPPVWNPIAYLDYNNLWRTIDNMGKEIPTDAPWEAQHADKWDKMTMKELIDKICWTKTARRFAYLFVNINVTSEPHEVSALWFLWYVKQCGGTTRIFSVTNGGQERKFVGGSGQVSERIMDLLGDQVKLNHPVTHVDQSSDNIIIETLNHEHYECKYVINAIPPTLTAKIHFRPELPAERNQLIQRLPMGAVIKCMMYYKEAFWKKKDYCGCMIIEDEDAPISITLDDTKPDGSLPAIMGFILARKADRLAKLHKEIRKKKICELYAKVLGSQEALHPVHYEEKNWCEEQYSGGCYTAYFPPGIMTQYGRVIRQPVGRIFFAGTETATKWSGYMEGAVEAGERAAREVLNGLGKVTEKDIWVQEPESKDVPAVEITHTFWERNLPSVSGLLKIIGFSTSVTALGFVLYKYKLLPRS
Method: (§1) Inhibition of human recombinant monoamine oxidases A (250 U/mg) and B (59 U/mg; microsomes from baculovirus infected insect cells; Sigma Aldrich) was determined as already described, measuring the fluorescence of 4-hydroxyquinoline (exc. 310 nm; em. 400 nm) produced by MAOs in the oxidative deamination of substrate kynuramine. […] Assays were performed in triplicate during three independent tests, in 96-well black polystyrene plates (Greiner Bio-One, Kremsmünster, Austria) using an Infinite M1000 Pro plate reader (Tecan, Cernusco s.N., Italy).

human recombinant MAO-B = target: T2, human recombinant MAO-B (Homo sapiens, UniProt P27338); test: (h)MAO-B inhibition, kynuramine fluorescence assay; assay type: biochemical; settings: kynuramine 50 µM; for inhibition at 10 µM: 10^−5 M; for IC50: (h)MAO-B IC50 (µM) (n = 3), mean ± SEM, n = 3
T2 construct: purchased Sigma Aldrich; host or cells: baculovirus infected insect cells (microsomes)
T2 sequence (P27338 1-520): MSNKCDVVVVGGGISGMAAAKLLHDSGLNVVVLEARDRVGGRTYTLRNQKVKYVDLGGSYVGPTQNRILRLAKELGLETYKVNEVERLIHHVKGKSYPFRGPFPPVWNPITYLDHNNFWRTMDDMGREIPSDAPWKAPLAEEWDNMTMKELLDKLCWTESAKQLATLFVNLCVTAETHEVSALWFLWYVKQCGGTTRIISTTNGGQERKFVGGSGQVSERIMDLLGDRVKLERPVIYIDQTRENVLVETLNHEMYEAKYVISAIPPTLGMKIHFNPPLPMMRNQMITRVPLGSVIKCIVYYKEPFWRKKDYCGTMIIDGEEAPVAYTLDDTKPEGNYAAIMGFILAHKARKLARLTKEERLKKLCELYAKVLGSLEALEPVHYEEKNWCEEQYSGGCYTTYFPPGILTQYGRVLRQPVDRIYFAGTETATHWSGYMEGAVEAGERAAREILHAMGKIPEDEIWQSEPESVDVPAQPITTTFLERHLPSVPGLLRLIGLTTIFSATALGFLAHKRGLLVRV
Method: as §1

Sequence of (h)AChE (AChE from human erythrocytes) (P22303 other isoform, or with tags, fused parts or gaps): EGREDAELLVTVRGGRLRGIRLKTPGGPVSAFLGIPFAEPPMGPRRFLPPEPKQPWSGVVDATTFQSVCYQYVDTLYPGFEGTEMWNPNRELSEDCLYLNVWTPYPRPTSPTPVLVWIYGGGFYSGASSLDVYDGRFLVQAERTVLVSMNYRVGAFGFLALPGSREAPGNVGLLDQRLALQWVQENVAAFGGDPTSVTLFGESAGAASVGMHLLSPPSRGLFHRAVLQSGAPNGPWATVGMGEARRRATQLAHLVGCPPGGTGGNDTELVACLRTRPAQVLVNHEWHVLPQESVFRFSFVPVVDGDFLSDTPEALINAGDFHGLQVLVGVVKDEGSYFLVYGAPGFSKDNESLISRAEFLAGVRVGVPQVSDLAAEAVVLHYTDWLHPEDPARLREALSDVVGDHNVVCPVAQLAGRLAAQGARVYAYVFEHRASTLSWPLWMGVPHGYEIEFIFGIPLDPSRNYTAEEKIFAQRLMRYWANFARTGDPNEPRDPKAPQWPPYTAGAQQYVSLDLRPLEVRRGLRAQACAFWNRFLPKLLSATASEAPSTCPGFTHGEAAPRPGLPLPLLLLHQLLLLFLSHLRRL

| SMILES | IC50 ([1]; (h)AChE IC50 (µM) (n = 3), mean ± SEM, n = 3) | relative selectivity: BuChE inhibited at a concentration fold greater than AChE ([1]; BuChE IC50 vs (h)AChE IC50) | inhibition at 1 µM [1] | IC50 ([1]; value in nM, read-out: (h)AChE IC50) | IC50 ([2]; (eq)BuChE IC50 (µM) (n = 3), mean ± SEM, n = 3) | inhibition at 1 µM [2] | inhibition at 10 µM (human recombinant MAO-A) | inhibition at 10 µM (human recombinant MAO-B) | IC50 (human recombinant MAO-B) |
| --- | --- | --- | --- | --- | --- | --- | --- | --- | --- |
| C#CCN[C@@H]1c2cc(OC)c(OC)cc2C(=O)[C@H]1CC1CCN(Cc2ccccc2)CC1 (relative stereo) [Trans-PADPZ (19), Trans 2-[(1-Benzyl-4-piperidyl)methyl]-5,6-dimethoxy-3-(prop-2-ynylamino)indan-1-one] | 0.4 µM and 0.442 µM | 10 fold | 71% | 0.44 µM | 4.23 ± 0.375 µM | 74% | 13% | 52% | 6.4 µM and 6.43 µM |
| C#CCNC1CC(=O)c2cc(OC)c(OC)cc21 (centres unmarked) [Compound 5, 5,6-Dimethoxy-3-(prop-2-ynylamino)indan-1-one] |  |  |  |  |  |  | < 10% | 45% | 13.4 ± 3.4 µM |
| COc1cc2c(cc1OC)C(NC(C)=O)C(CC1CCN(Cc3ccccc3)CC1)C2=O (centres unmarked) [Compound 16] |  |  | 4% |  |  | 39% |  |  |  |

From paper PMC7795340, “First Synthesis of Racemic Trans Propargylamino-Donepezil, a Pleiotrope Agent Able to Both Inhibit AChE and MAO-B, with Potential Interest against Alzheimer’s Disease” (Molecules, 2020)
